Experiments:
[1] = system: interleukin-6 (IL-6)-dependent mouse hybridoma cell line; conditions: cited from earlier work
[2] = system: Balb/c spleen cells stimulated with irradiated CBA spleen cells; conditions: cited from earlier work
IL-2 transcription = conditions: IL-2 reporter gene assay; cited from earlier work
[3] = Standard in vitro assays of immunosuppressivity in comparison to FK506 and rapamycin; format: cell-based
From the text: This can be shown in standard in vitro assays in comparison to FK506 and rapamycin. […] Nonimmunosuppressivity can also be shown in the in vivo models 1-7 above.

Row | Compound | inhibition of IL-6 dependent T-cell proliferation (in words) [1] | inhibition of the mixed lymphocyte reaction (in words) [2] | inhibition of IL-2 transcription (in words) (IL-2 transcription) | immunosuppressivity (in words) [3]
1 | Rapamycin | strongly inhibits | very potent inhibitors | not active | 
2 | CO[C@H]1C[C@@H]2CC[C@@H](C)[C@@](O)(O2)C(=O)C(=O)N2CCCC[C@H]2C(=O)O[C@H]([C@H](C)C[C@@H]2CC[C@@H](O)[C@H](OC)C2)CC(=O)[C@H](C)/C=C(\C)[C@@H](OC)[C@@H](OC)C(=O)[C@H](C)C[C@H](C)/C=C/C=C/C=C/1C [Example 21, 28-O-Methyl-rapamycin] |  |  |  | not immunosuppressive

Reference: patent US6440990B1, “O-alkylated rapamycin derivatives and their use, particularly as immunosuppressants” (Novartis AG, priority 1992, dated 2002)
